# Experimental data: the METLIN SMRT retention time set (Domingo-Almenara et al. 2019)
# Test: gradient 5% acetonitrile 3 min, to 50% in 2 min, to 85% in 15 min, held 3 min, 100 µL/min
# Settings: column: Zorbax Extend-C18 2.1 x 50 mm; eluents: water / acetonitrile, 0.1% formic acid
# Outline: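 Values are retention times taken from adduct peaks that software picked and an analyst inspected. The pure standards were run as mixtures of ~100 molecules on HPLC linked to a quadrupole time-of-flight mass spectrometer, in positive and negative ionization mode. A Zorbax Extend-C18 column (2.1 × 50 mm, 1.8 μm) was used at 100 μL/min with water and acetonitrile, each including 0.1% formic acid.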
row,SMILES,RP-LC retention time [s]
1,Cc1ccc(-c2nc3cnccn3c2NCCC(=O)NCc2ccc(C)o2)cc1,710
2,O=C(O)c1nnn(-c2cccc(F)c2)c1C(F)(F)F,744
3,Cc1ccc(CNC(=O)c2ccc3c(c2)nc2n3CCN(C3CCCCC3)C2=O)cc1,839
4,CN(C)c1ncncc1N1CCC(C(=O)N2CCN(c3ccccc3F)CC2)CC1,650
5,O=C(Cc1csc2nc(-c3ccccc3)cn12)N1CCCc2ccccc21,873
6,CC(C)(C)NC(=O)N1CCC(CNC(=O)c2ccccn2)CC1,644
7,CCCCCNC(=O)C1CCCN(c2ncc(-c3ccccc3)cn2)C1 (stereo not given),1090
8,COc1ccc(-c2cc(=O)c3cc(Br)ccc3o2)cc1OC,912
9,COc1ccc2c(c1)-c1nc(NC(=O)c3ccc(Br)cc3)sc1CC2,1250
10,COC(=O)N1CCc2ccccc2C1C(=O)Nc1ccccc1C(F)(F)F (stereo not given),877
11,NC(=O)c1oc2ccccc2c1NC(=O)C1=COCCO1,672
12,COc1ccc(-c2nc3n(n2)C2(CCCCC2)[C@@H]2CCCC[C@@H]2N3C(=O)c2ccco2)cc1,1380
13,N=C(N)n1c(N)nc2ccccc2c1=O,613
14,Cc1c(C(=O)N2CCN(C)CC2)cnn1-c1ccc(-c2nc(C3CC3)no2)cn1,635
15,CCCN1CCN(c2cc(C(=O)O)c3cc(NS(=O)(=O)c4ccc(C)cc4)ccc3n2)CC1,638
16,c1cn(-c2cc(N3CCCCC3)ncn2)cn1,613
17,Cc1ccc(-c2noc(-c3ccccc3S(=O)(=O)N3CCCCC3C)n2)cc1 (stereo not given),1250
18,O=C(NC1CCCCCC1)C1CC(=O)N(CCc2c[nH]c3ccc(F)cc23)C1 (stereo not given),812
19,CCN1CCCC1CNC(=O)CN1C(=O)C2CCCCN2c2ccc(C(=O)N(C)C)cc21 (stereo not given),596
20,O=C(Nc1ccc(S(=O)(=O)N2CCOCC2)cc1)c1ccc(Cl)s1,767
21,CC(=O)N1CCc2cc(N3CC(C(=O)Nc4cc(F)ccc4F)CC3=O)ccc21 (stereo not given),712
22,CCc1noc(NC(C)=O)c1-c1ccc(OC)c(S(=O)(=O)Nc2ccc(C)c(C)c2)c1,846
23,COC(=O)c1cnc2nc(C)ccc2c1Nc1cc(F)ccc1C,689

row,SMILES,RP-LC retention time [s]
1,Cc1c(Cl)cccc1-n1nc(C)c2c(C(F)(F)F)cc(OCC(=O)NC(C)C)nc21,1160
2,CNC(=O)[C@@H]1CN(C(=O)C2CC=CCC2)C[C@H]1c1nc(C)no1 (stereo not given in full),642
3,CC(C)CCNC(=O)Cn1nc(S(=O)(=O)c2cccc(F)c2)ccc1=O,757
4,CC(C)c1ccc(CNC(=O)c2nnc(-c3ccc(S(=O)(=O)N(C)C)cc3)o2)cc1,1010
5,Cc1ccc(S(=O)(=O)Nc2cc(-c3cn4ccc(C)cc4n3)ccc2C)cc1,696
6,O=C(C1COc2ccccc2O1)N1CC(n2ccnc2)C1 (stereo not given),594
7,CCc1nnc(-c2ccc3ccn(CC(=O)N4CCN(c5ccc(Cl)cc5)CC4)c3c2)o1,965
8,CCC(=O)N1CCc2cc(C(=O)NCCC3=CCCCC3)ccc21,891
9,CN(CC1CCOC1)C(=O)c1cc(F)ccc1Cl (stereo not given),704
10,Cc1ccc(Cl)cc1N1CCN(C(=O)c2c(C)oc3c2C2=NCCN2C=N3)CC1,705
11,CCCCNC(=O)c1c(OCC(C)C)cc(=O)n2c1CCCCC2,755
12,CC(C)(C)NC(=O)N1CCCN(C2CCN(Cc3ccccc3)C2=O)CC1 (stereo not given),618
13,Cc1ccc(-n2c(N3CCC(C(=O)NCC(C)C)CC3)nc3ccsc3c2=O)cc1,821
14,Cc1ccc(C(=O)N2[C@H]3CC[C@@H]2c2cnc(C)nc2C3)cn1,562
15,Cc1ccc2c(Nc3ccc(C#N)cc3)c(C(=O)N3CCCC3)cnc2n1,576
16,COc1ccccc1N1CCN(S(=O)(=O)c2cc(-c3nnc(C4CCC4)o3)co2)CC1,1020
17,O=C(N1CCN(S(=O)(=O)Cc2ccccc2)CC1)N1C[C@H]2C[C@H](C1)[C@H]1CCCC(=O)N1C2,709
18,O=C(CSc1nc(-c2ccccc2)c(-c2ccccc2)o1)NCCCO,760
19,CN(C)C[C@@H]1CN(Cc2ccccc2)C[C@H]1NS(=O)(=O)c1ccc(C#N)cc1,562
20,CC(C)Cc1ccc([C@H](C)C(=O)O)cc1,1040
21,CN1C(=O)C2CCCCN2c2ccc(C(=O)N3CCC(Cc4ccccc4)CC3)cc21 (stereo not given),1110
22,OCc1ncc(-c2ccccc2)s1,762
23,CC(C)n1cnc(S(=O)(=O)N2CCC(C(=O)NCc3cccs3)CC2)c1,701

row,SMILES,RP-LC retention time [s]
1,CSc1cccc(NC(=O)c2nnn(Cc3ccc(F)cc3)c2-n2cccc2)c1,1150
2,NCCC1CCN(C(=O)Nc2ccc(F)cc2F)CC1,585
3,COCCN1C(=O)[C@H]2CN(Cc3ccccc3)C[C@H]2C1=O,572
4,Cc1nnc2c(NC(=O)c3ccncc3)cccn12,575
5,Cc1ccc(-c2cc3c(=O)n(Cc4nc(-c5ccccc5Cl)no4)ncn3n2)c(C)c1,1220
6,CCC1Oc2ccc(S(=O)(=O)N3CCC(C(=O)Nc4ccc(F)cc4)CC3)cc2NC1=O (stereo not given),866
7,COc1ccc(N2CCN(C(=O)c3ccc(-c4ccsc4)nc3)CC2)cc1,1160
8,COC(=O)c1cn(Cc2ccc(OC)c(F)c2)nc1S(=O)(=O)N1CCCCC1,945
9,Cc1ccc(S(=O)(=O)N2CCC(C(=O)N3CCCC3c3nc(-c4ccccc4C)no3)CC2)cc1 (stereo not given),1090
10,Cc1ccc(NC(=O)N2CCc3nc(-c4ccc(F)cc4)ncc3C2)c(Cl)c1,1080
11,CCOC(=O)c1nc(Nc2ccc(C)c(C)c2)c2ccccc2n1,934
12,O=C(Nc1cnc(N2CCCC2)nc1)c1ccc(Cl)cc1,765
13,O=C(CN1CCN(Cc2ccccc2)C(=O)C1=O)N1CCN(c2ccccc2F)CC1,752
14,O=C(NCc1ccccc1F)c1ccc(Cn2c(C(F)(F)F)nc3cccnc32)cc1,876
15,CCN1C(=O)CCC2(C(=O)NCCc3c[nH]c4ccccc34)CCCC=C12 (stereo not given),743
16,CCOc1ccc(S(=O)(=O)N2CCC(C(=O)N(CC)CC)CC2)cc1C,934
17,O=C(O)C1CN(C(=O)COc2ccccc2F)C1,604
18,O=C(CSc1nnc2c3sc(N4CCCC4)nc3ncn12)Nc1ccc2c(c1)OCO2,766
19,CCCn1cc(C(=O)NC2CCN(Cc3ccccc3)CC2)c2cccnc21,624
20,Cc1cc(C)cc(NC(=O)Cn2ncc3c(N4CCN(c5ccccn5)CC4)ncnc32)c1,606
21,COc1ccccc1CNC(=O)Cn1c(=O)cc(-c2nc(C3CC3)no2)c2ccccc21,932
22,O=C(c1cc(-c2ccco2)on1)N1CCn2c1nc1ccccc12,621
23,CCN1C(SCC(=O)Nc2c(C)cc(C)cc2C)=NS(=O)(=O)c2ccccc21,788

row,SMILES,RP-LC retention time [s]
1,COc1ccc(-c2noc(Cc3nnc(-c4cccc(F)c4)o3)n2)cc1,1020
2,O=C(Cn1cccc(-c2nc(-c3ccc(Cl)cc3)no2)c1=O)N1CCCCC1,855
3,Cc1cc(C)n(-c2ccc(CNC(=O)c3ccc(Cl)s3)cc2)n1,892
4,Cc1cc(-c2nnc(-c3ccco3)o2)c(C)n1CC(=O)Nc1cc(F)cc(F)c1,929
5,CCc1ccc(NC(=O)Cc2nc(C)c(C(=O)NCc3ccc(F)cc3)s2)cc1,946
6,CC(C)(C)c1ccc2c(c1)N(S(=O)(=O)c1ccccc1)CC(C(=O)NC1CC1)O2 (stereo not given),1080
7,Cc1ccc(C)c(NC(=O)Cn2cnc(-c3noc(-c4ccncc4)n3)c2)c1,687
8,COc1ccc(C(=O)N2CCC3(C2)C(=O)Nc2ccccc23)c(OC)c1 (stereo not given),655
9,COc1cc2c(cc1OC)C(C(=O)N1CCN(c3ccccn3)CC1)C(c1cccnc1)N(C)C2=O (stereo not given),1230
10,COc1ccc(-c2nc(C3CC(=O)N(c4ccc(C)cc4)C3)no2)cc1OC (stereo not given),937
11,O=C(c1ccoc1)N1CCC(c2noc(C3CC3)n2)C1 (stereo not given),694
12,O=C(CCCc1c[nH]c2ccccc12)NC1CCN(c2ccc(=O)[nH]n2)C1 (stereo not given),640
13,COc1ccc(CCC(=O)N2CCC(C(=O)NCCc3csc(-c4cccs4)n3)CC2)cc1,826
14,COC(=O)[C@H](CCSC)NC(=O)c1cccc(-n2cnnn2)c1,707
15,COc1ccc(OCc2noc(CNC(=O)c3cccnc3)n2)cc1,749
16,CNC(=O)C1CCN(C2=NS(=O)(=O)C(c3ccc(C(C)C)cc3)=C2C)CC1,777
17,Cc1nn(C)c2nc(OC(C)C(=O)NCc3ccc(F)cc3)cc(C(F)(F)F)c12 (stereo not given),960
18,Cc1ccc(S(=O)(=O)N2CCC3(CC2)NCCN=C3NCc2ccccc2)c(C)c1,739
19,COc1cc(NC(=O)Cn2c(C)cc(-c3nnc(C4CC4)o3)c2C)cc(OC)c1,829
20,O=C(NCCc1c[nH]c2ccccc12)C1COc2ccccc2O1 (stereo not given),866
21,Cc1ccc(OCC(=O)Nc2cncc(-c3nc4ccccc4o3)c2)cc1,1010
